According to patent publication US20040204577A1, “Novel peptide-forming enzyme gene” (Ajinomoto Co., Inc., priority 2003, published 2004):
Where a SMILES comes first, the peptide text is derived from it. [ ]: non-standard residue; d: D form. The star is where a group is joined. Tle = CC(C)(C)[C@H](N)C(=O)O; NMeA = CN[C@@H](C)C(=O)O; Boc = CC(C)(C)OC(=O)*; Aib = CC(C)(N)C(=O)O; OtBu = CC(C)(C)O*; tBu = CC(C)(C)*

System: peptide-forming enzyme (Mono S fraction enzyme)
Assay: Enzyme substrate specificity (1)-(10), (13), (14): peptide production
Format: biochemical, Empedobacter brevis
Parameters: key to Formed peptide: +: those peptides for which production was confirmed but which were unable to be quantified due to the absence of a standard; a trace amount
Settings: L or D amino acid methyl ester hydrochloride 100 mM, L or D amino acid 150 mM, pH 9.0, 25° C., 3 hours
Method: Ester specificity was examined in the case of using L-amino acid ester for the carboxy component. 2 μl of the same enzyme fraction as used in Example 5 was added to 100 μl of 100 mM borate buffer (pH 9.0) containing the carboxy components indicated in Table 4 at 100 mM, 200 mM L-glutamine and 10 mM EDTA, and allowed to react at 25° C. for 2 hours. HCl represents hydrochloride in Table 4.
Peptide production was examined in the case of using L-alanine methyl ester for the carboxy component and using various L-amino acids for the amine component.
Peptide production was examined in the case of using various types of L-amino acid methyl esters for the carboxy component and using L-glutamine for the amine component. 2 μl of the same enzyme fraction as used in Example 5 was added to 100 μl of 100 mM borate buffer (pH 9.0) containing the L-amino acid methyl ester hydrochloride salts (AA-OMe.HCl) shown in Table 6 at 100 mM, 150 mM L-glutamine and 10 mM EDTA, and allowed to react at 25° C. for 3 hours. […] Furthermore, Tween-80 was added to the reaction system to a final concentration of 0.1% in the case of using L-Trp-OMe and L-Tyr-OMe.
Peptide production was examined in the case of using various L-amino acid methyl esters for the carboxy component and various L-amino acids for the amine component. 2 μl of the same enzyme fraction as used in Example 5 was added to 100 μl of 100 mM borate buffer (pH 9.0) containing the L-amino acid methyl ester hydrochloride salts (AA-OMe.HCl) shown in Table 7 at 100 mM, the L-amino acids shown in Table 7 at 150 mM and 10 mM EDTA, and allowed to react at 25° C. for 3 hours. The “tr” indicates a trace amount. Furthermore, Tween-80 was added to the reaction system to a final concentration of 0.1% in the case of using L-Trp-OMe.
Peptide production was examined in the case of using the L or D forms of various amino acid methyl esters for the carboxy component, and the L or D forms of various amino acids for the amine component. 2 μl of the same enzyme fraction as used in Example 5 was added to 100 μl of 100 mM borate buffer (pH 9.0) containing the various amino acid methyl ester hydrochloride salts (AA-OMe HCl) shown in Table 8 at 100 mM, the various amino acids shown in Table 8 at 150 mM and 10 mM EDTA, and allowed to react at 25° C. for 3 hours. The “tr” indicates a trace amount.
Peptide production was examined using various L-amino acid amides for the carboxy component, and various L-amino acids for the amine component. 2 μl of the same enzyme fraction as that used in Example 5 was added to 100 μl of 100 mM borate buffer (pH 9.0) containing the L-amino acid amide hydrochloride salt (M-NH2.HCl) shown in Table 9 at 100 mM, the L-amino acids shown in Table 9 at 150 mM and 10 mM EDTA, and allowed to react at 25° C. for 3 hours.
Peptide production was examined in the case of using various L-alanine methyl esters for the carboxy component and C-protected L-amino acids for the amine component. 2 μl of the same enzyme fraction as used in Example 5 was added to 100 μl of 100 mM borate buffer (pH 9.0) containing the L-alanine methyl ester hydrochloride hydrochloride salt (Ala-OMe.HCl) shown in Table 10 at 100 mM, the L-amino acid amide hydrochloride salts shown in Table 10 at 150 mM and 10 mM EDTA, and allowed to react at 25° C. for 3 hours.
Peptide production was examined in the case of using various amino acid methyl esters for the carboxy component and methylamine for the amine component. 2 μl of the same enzyme fraction as used in Example 5 was added to 100 μl of 100 mM borate buffer (pH 9.0) containing the amino acid methyl ester hydrochloride salt (M-OMe.HCl) shown in Table 11 at 100 mM, the methylamine shown in Table 11 at 150 mM and 10 mM EDTA, and allowed to react at 25° C. for 3 hours.
Peptide production was examined in the case of using […] for the carboxy component or β-amino acid for the amine component.

Formed peptide | Structure (SMILES)
tr | C[C@@H](N)C(=O)N[C@H](CCC(N)=O)C(=O)O [D-Ala-D-Gln] (H-[dA]-[dQ]-OH)
69.3 mM | C[C@@H](N)C(=O)N[C@@H](CCC(N)=O)C(=O)O [D-Ala-L-Gln] (H-[dA]-Gln-OH)
2.7 mM | CSCC[C@@H](N)C(=O)N[C@H](CO)C(=O)O [D-Met-D-Ser] (H-[dM]-[dS]-OH)
5.1 mM | CSCC[C@@H](N)C(=O)N[C@@H](CO)C(=O)O [D-Met-L-Ser] (H-[dM]-Ser-OH)
2.5 mM | N[C@H](CO)C(=O)N[C@H](CO)C(=O)O [D-Ser-D-Ser] (H-[dS]-[dS]-OH)
3.3 mM | N[C@H](CO)C(=O)N[C@@H](CO)C(=O)O [D-Ser-L-Ser] (H-[dS]-Ser-OH)
1.1 mM | C[C@H](O)[C@@H](N)C(=O)N[C@H](CO)C(=O)O [D-Thr-D-Ser] (H-[dT]-[dS]-OH)
1.0 mM | C[C@H](O)[C@@H](N)C(=O)N[C@@H](CO)C(=O)O [D-Thr-L-Ser] (H-[dT]-Ser-OH)
0.5 mM | CC(C)[C@@H](N)C(=O)N[C@H](CO)C(=O)O [D-Val-D-Ser] (H-[dV]-[dS]-OH)
0.6 mM | CC(C)[C@@H](N)C(=O)N[C@@H](CO)C(=O)O [D-Val-L-Ser] (H-[dV]-Ser-OH)
0.3 mM | C[C@H](N)C(=O)N[C@H](CCC(N)=O)C(=O)O [L-Ala-D-Gln] (H-Ala-[dQ]-OH)
1.9 mM | CSCC[C@H](N)C(=O)N[C@H](CO)C(=O)O [L-Met-D-Ser] (H-Met-[dS]-OH)
16.2 mM | N[C@@H](CO)C(=O)N[C@H](CO)C(=O)O [L-Ser-D-Ser] (H-Ser-[dS]-OH)
6.9 mM | C[C@@H](O)[C@H](N)C(=O)N[C@H](CO)C(=O)O [L-Thr-D-Ser] (H-Thr-[dS]-OH)
1.4 mM | CC(C)[C@H](N)C(=O)N[C@H](CO)C(=O)O [L-Val-D-Ser] (H-Val-[dS]-OH)

Same assay, conditions: L-amino acid amide hydrochloride as carboxy component 100 mM, L-amino acid 150 mM, pH 9.0, 25° C., 3 hours

Formed peptide [mM] | Structure (SMILES)
0.6 | N[C@@H](Cc1ccccc1)C(=O)N[C@@H](CO)C(=O)O [L-Phe-L-Ser] (H-Phe-Ser-OH)

Same assay, conditions: L-amino acid methyl ester hydrochloride 100 mM, 150 mM L-glutamine, pH 9.0, 25° C., 3 hours

Formed peptide | Structure (SMILES)
+ | NC(=O)CC[C@H](NC(=O)[C@@H](N)CC(N)=O)C(=O)O [L-Asn-L-Gln] (H-Asn-Gln-OH)
+ | NC(=O)CC[C@H](NC(=O)[C@@H](N)CS)C(=O)O [L-CySH-L-Gln] (H-Cys-Gln-OH)
+ | NC(=O)CC[C@H](NC(=O)[C@@H](N)Cc1cnc[nH]1)C(=O)O [L-His-L-Gln] (H-His-Gln-OH)
+ | CC(C)C[C@H](N)C(=O)N[C@@H](CCC(N)=O)C(=O)O [L-Leu-L-Gln] (H-Leu-Gln-OH)
+ | NCCCC[C@H](N)C(=O)N[C@@H](CCC(N)=O)C(=O)O [L-Lys-L-Gln] (H-Lys-Gln-OH)
+ | NC(=O)CCC(NC(=O)C(N)Cc1c[nH]c2ccccc12)C(=O)O [L-Trp-L-Gln] (H-Trp-Gln-OH; configuration not given here)

Same assay, conditions: L-amino acid methyl ester hydrochloride 100 mM, L-amino acid 150 mM, pH 9.0, 25° C., 3 hours

Formed peptide [mM] | Structure (SMILES)
45.6 | NCC(=O)N[C@@H](CS)C(=O)O [Gly-L-CySH] (H-Gly-Cys-OH)
10.2 | NC(=O)C[C@H](N)C(=O)N[C@@H](CCC(=O)O)C(=O)O [L-Asn-L-] (H-Asn-Glu-OH)
6.5 | CSCC[C@H](NC(=O)[C@@H](N)Cc1cnc[nH]1)C(=O)O [L-His-L-Met] (H-His-Met-OH)
12.2 | CSCC[C@H](NC(=O)[C@@H](N)CC(C)C)C(=O)O [L-Leu-L-] (H-Leu-Met-OH)
6.8 | CSCC[C@H](NC(=O)[C@@H](N)CCCCN)C(=O)O [L-Lys-L-Met]
58.2 | C[C@@H](O)[C@H](N)C(=O)N[C@@H](CO)C(=O)O [L-Thr-L-Ser] (H-Thr-Ser-OH)
4.1 | CSCC[C@H](NC(=O)[C@@H](N)Cc1c[nH]c2ccccc12)C(=O)O [L-Trp-L-Met] (H-Trp-Met-OH)

Same assay, conditions: carboxy component 40 mM, amine component 40 mM, 0.1 unit enzyme, 25° C., reaction time 3 hr

Produced peptide [mM] | Structure (SMILES)
20.8 | C[C@H](N)C(=O)N[C@@H](Cc1ccc(Cl)cc1)C(=O)O [H-Ala-Cl-F-Phe-OH]
27.5 | C[C@H](N)C(=O)N[C@@H](Cc1ccc([N+](=O)[O-])cc1)C(=O)O [H-Ala-p-NO2-Phe-OH]
1.1 | NC(=O)CC[C@H](NC(=O)[C@@H](N)Cc1ccc([N+](=O)[O-])cc1)C(=O)O [H-p-NO2-Phe-H-Gln-OH]

Same assay, conditions: carboxy component 50 mM, amine component 50 mM, 0.1 unit enzyme, 25° C., reaction time 3 hr

Produced peptide [mM] | Structure (SMILES)
21.9 | C[C@H](N)C(=O)N[C@@H](Cc1ccc(F)cc1)C(=O)O [H-Ala-p-F-Phe-OH]

Same assay, conditions: carboxy component 100 mM, 200 mM L-glutamine, pH 9.0, 25° C., 2 hours

L-Ala-L-Gln formed [mM] | Structure (SMILES)
91.5 | CCOC(=O)[C@H](C)N.Cl [L-Alanine ethyl ester.HCl]
78.9 | CC(C)OC(=O)[C@H](C)N.Cl [L-Alanine isopropyl ester.HCl]
7.5 | C[C@H](N)C(=O)OC(C)(C)C.Cl [L-Alanine-t-butyl ester.HCl]

Structure (SMILES) | L-Ala-L-Gln formed [mM]
COC(=O)[C@H](C)N.Cl [L-Alanine methyl ester.HCl, L-alanine methyl ester hydrochloride] | 84.3

Same assay, conditions: carboxy component 100 mM, amine component 150 mM, 0.1 unit enzyme, 25° C., reaction time 2 hr

Produced peptide [mM] | Structure (SMILES)
62.6 | C[C@H](N)C(=O)N[C@@H](CC(=O)OC(C)(C)C)C(=O)O [H-Ala-Asp(OtBu)-OH] (H-Ala-Asp(OtBu)-OH)
51.0 | C[C@H](N)C(=O)N[C@@H](CCCCNC(=O)OC(C)(C)C)C(=O)O [H-Ala-Lys(Boc)-OH] (H-Ala-Lys(Boc)-OH)
48.8 | C[C@H](N)C(=O)N[C@@H](COC(C)(C)C)C(=O)O [H-Ala-Ser(tBu)-OH] (H-Ala-Ser(tBu)-OH)
0.9 | CC(C)(C)OC(=O)C[C@H](N)C(=O)N[C@@H](CCC(N)=O)C(=O)O [H-Asp(OtBu)-Gln-OH] (H-Asp(OtBu)-Gln-OH)

Same assay, conditions: carboxy component 100 mM, amine component 150 mM, 0.1 unit enzyme, 25° C., reaction time 3 hr

Produced peptide [mM] | Structure (SMILES)
18.8 | CC(C)(N)C(=O)N[C@@H](CCC(N)=O)C(=O)O [H-Aib-H-Gln-OH] (H-[Aib]-Gln-OH)
17.2 | CC(C)(N)C(=O)N[C@@H](Cc1ccccc1)C(=O)O [H-Aib-Phe-OH] (H-[Aib]-Phe-OH)
0.4 | C[C@H](N)C(=O)N[C@H](C(=O)O)C(C)(C)C [H-Ala-t-Leu-OH] (H-Ala-[Tle]-OH)
0.5 | CN[C@@H](C)C(=O)N[C@@H](CCC(N)=O)C(=O)O [H-N-Me-Ala-H-Gln-OH] (H-[NMeA]-Gln-OH)

Same assay, conditions: β-amino acid ester or β-amino acid; carboxy component 100 mM, amine component 150 mM, pH 9.0, 25° C., 3 hours

Formed peptide [mM] | Structure (SMILES)
7.7 | CC(N)C(=O)NCCC(=O)O (stereo not drawn) [Ala-β-Ala]
1.4 | CC(N)C(=O)NC(CC(=O)O)c1ccccc1 (stereo not drawn) [Ala-β-Phe]
2.2 | NCC(=O)NCCC(=O)O [Gly-β-Ala]
0.4 | NCC(=O)NC(CC(=O)O)c1ccccc1 (stereo not drawn) [Gly-β-Phe]
3.2 | C[C@@H](O)[C@H](N)C(=O)NCCC(=O)O [Thr-β-Ala]
